# Results published in paper PMC6120739 (ACS Omega, 2018).
# “Also recorded” adds a separate entry of the source.
# How the values were obtained:
# [1] = molecular target: recombinant human P-gp (Homo sapiens, UniProt P08183); assay: Pgp-Glo assay; settings: 20 µM compound, 1 hr at 37°C, normalized to Na3VO4
# [2] = system: UWB1.289 cells; assay: Cell viability assay; settings: for EC50: UWB1289, read-out: UWB1.289 EC50; for cytotoxicity in BRCA1-null model, result in words: compared with AZD2461 and olaparib
# [3] = molecular target: PARP-1 (Homo sapiens, UniProt P09874); assay: PARP-1 radioligand binding; settings: PARP-1 IC50, OVCAR8 cells, [125I]KX1 radioligand, ± SEM, n = 3
# [4] = system: UWB1.289 + BRCA1 cells; assay: Cell viability assay; assay type: cell-based; settings: for EC50: UWB1289, read-out: UWB1.289 + BRCA1 EC50; for antiproliferative effect in BRCA1-restored UWB1.289, result in words: in contrast to olaparib and AZD2461
# Chain of PARP-1 (P09874 whole entry): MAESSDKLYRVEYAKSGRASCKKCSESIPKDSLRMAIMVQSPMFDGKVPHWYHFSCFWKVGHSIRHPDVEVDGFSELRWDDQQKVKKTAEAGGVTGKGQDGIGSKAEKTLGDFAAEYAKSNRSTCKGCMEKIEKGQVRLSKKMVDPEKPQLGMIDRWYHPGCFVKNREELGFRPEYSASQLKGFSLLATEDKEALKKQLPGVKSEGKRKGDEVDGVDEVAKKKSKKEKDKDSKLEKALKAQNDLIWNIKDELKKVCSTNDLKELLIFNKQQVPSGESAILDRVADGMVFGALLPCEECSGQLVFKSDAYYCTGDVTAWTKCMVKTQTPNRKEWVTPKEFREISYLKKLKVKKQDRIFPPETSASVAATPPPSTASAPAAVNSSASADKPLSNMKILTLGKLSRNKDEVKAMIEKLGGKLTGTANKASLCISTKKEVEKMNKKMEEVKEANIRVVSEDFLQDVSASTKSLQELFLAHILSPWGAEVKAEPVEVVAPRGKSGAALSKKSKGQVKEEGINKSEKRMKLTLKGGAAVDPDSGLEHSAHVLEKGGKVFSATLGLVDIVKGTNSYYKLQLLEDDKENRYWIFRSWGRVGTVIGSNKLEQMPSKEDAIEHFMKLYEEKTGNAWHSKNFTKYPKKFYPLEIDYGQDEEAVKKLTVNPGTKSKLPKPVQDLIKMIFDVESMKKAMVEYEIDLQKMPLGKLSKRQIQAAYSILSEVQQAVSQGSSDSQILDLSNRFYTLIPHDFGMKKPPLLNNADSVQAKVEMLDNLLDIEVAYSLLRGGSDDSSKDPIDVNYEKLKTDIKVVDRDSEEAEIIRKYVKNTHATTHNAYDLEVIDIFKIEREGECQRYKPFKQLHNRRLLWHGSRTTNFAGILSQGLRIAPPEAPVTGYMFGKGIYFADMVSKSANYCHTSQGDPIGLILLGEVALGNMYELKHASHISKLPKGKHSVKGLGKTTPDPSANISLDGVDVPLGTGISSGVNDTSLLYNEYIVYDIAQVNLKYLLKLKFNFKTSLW
# Chain of recombinant human P-gp (P08183 whole entry): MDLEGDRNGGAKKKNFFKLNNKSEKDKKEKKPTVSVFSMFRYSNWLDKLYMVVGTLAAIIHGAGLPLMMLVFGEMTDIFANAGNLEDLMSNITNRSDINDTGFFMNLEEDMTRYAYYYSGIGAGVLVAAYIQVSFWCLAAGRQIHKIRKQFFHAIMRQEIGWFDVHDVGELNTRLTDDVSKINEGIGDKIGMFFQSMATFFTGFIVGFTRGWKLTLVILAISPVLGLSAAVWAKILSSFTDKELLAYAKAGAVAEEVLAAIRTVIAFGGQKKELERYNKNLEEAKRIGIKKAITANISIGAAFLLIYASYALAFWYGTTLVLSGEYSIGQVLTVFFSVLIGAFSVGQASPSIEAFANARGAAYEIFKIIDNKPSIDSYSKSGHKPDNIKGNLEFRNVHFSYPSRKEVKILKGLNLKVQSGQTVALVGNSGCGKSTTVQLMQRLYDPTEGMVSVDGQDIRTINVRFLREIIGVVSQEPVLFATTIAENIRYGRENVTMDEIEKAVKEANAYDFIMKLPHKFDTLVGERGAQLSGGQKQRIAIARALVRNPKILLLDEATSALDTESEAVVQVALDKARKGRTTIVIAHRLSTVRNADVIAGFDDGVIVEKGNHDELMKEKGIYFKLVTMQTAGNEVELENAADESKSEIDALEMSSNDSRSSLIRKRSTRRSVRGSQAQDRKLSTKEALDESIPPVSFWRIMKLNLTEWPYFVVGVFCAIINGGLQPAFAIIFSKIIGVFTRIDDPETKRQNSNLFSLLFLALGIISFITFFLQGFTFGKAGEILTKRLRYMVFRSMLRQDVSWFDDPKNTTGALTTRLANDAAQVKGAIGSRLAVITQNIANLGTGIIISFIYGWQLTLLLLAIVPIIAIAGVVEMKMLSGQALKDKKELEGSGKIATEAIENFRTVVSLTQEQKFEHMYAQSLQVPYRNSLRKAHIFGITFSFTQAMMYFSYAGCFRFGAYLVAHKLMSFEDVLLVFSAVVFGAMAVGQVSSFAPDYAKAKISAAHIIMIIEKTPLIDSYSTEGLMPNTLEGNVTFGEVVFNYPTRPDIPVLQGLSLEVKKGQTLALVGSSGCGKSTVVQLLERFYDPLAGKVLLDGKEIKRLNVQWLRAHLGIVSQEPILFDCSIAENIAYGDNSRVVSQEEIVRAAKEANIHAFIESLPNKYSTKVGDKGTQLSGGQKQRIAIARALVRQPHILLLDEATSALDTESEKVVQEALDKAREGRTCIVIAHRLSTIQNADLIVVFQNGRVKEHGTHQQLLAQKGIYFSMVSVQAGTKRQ
SMILES,"P-gp ATPase interaction (luminescence), result in words [1]",EC50 [2],"cytotoxicity in BRCA1-null model, result in words [2]",IC50 [3],EC50 [4],"antiproliferative effect in BRCA1-restored UWB1.289, result in words [4]"
COC1CN(C(=O)c2cc(Cc3n[nH]c(=O)c4ccccc34)ccc2F)C1 [Compound 2],increase in luminescence,2120 ± 200 nM,less cytotoxic than both AZD2461 and olaparib,< 10 nM,13.4 ± 0.7 µM,poor antiproliferative effects
COC1CCN(C(=O)c2cc(Cc3n[nH]c(=O)c4ccccc34)ccc2F)C1 (stereo not drawn) [Compound 3],increase in luminescence; also recorded: weakest activators of P-gp ATPase; also recorded: least activating agents of P-gp ATPase,1500 ± 400 nM,less cytotoxic than both AZD2461 and olaparib,< 10 nM,8.58 ± 1.1 µM,poor antiproliferative effects
"COC1CCN(C(=O)c2cc(Cc3n[nH]c(=O)c4ccccc34)ccc2F)CC1 [Compound 4, AZD2461, reference compound]",,890 ± 700 nM,,,2.28 ± 0.3 µM,
COC1CCCN(C(=O)c2cc(Cc3n[nH]c(=O)c4ccccc34)ccc2F)CC1 (stereo not drawn) [Compound 5],increase in luminescence; also recorded: weakest activators of P-gp ATPase,2840 ± 1400 nM,less cytotoxic than both AZD2461 and olaparib,< 10 nM,3.49 ± 0.2 µM,poor antiproliferative effects
COC1CC(NC(=O)c2cc(Cc3n[nH]c(=O)c4ccccc34)ccc2F)C1 (stereo not drawn) [Compound 6],only P-gp substrate in this study,10100 ± 1500 nM,,,6.62 ± 4.3 µM,
CO[C@H]1C[C@H](NC(=O)c2cc(Cc3n[nH]c(=O)c4ccccc34)ccc2F)C1 [Compound 7],,1940 ± 1100 nM,,20.8 ± 1.1 nM,2.81 ± 1.4 µM,
CO[C@H]1C[C@@H](NC(=O)c2cc(Cc3n[nH]c(=O)c4ccccc34)ccc2F)C1 [Compound 8],,4350 ± 1700 nM,,107 ± 1.1 nM,13.9 ± 1.1 µM,
COC1CCC(NC(=O)c2cc(Cc3n[nH]c(=O)c4ccccc34)ccc2F)C1 (stereo not drawn) [Compound 9],poor activator of P-pg ATPase; also recorded: least activating agents of P-gp ATPase,1320 ± 500 nM,,49.5 ± 1.1 nM,9.31 ± 1 µM,
COC1CCC(NC(=O)c2cc(Cc3n[nH]c(=O)c4ccccc34)ccc2F)CC1 (stereo not drawn) [Compound 10],,2420 ± 900 nM,,226.3 ± 1.1 nM,6.16 ± 1.3 µM,
"O=C(c1cc(Cc2n[nH]c(=O)c3ccccc23)ccc1F)N1CCN(C(=O)C2CC2)CC1 [olaparib, reference compound]","acts more of a P-gp ATPase activator, than 4",900 ± 500 nM,,,1.97 ± 0.4 µM,
